US6607885B1, “Method for high-density microarray medicated gene expression profiling” (priority 1999, dated 2003)

What was measured:
Format in all cases: cell-based, Escherichia coli
E. coli MG1655 = assay: IPTG induction, micro-array gene expression profiling
Description: E. coli MG1655 was cultured with aeration in either the minimal medium, M9 (Miller, J. H., Experiments in Molecular Genetics, Cold Spring Harbor (1972)), supplemented with 0.4% glucose or in the rich medium, LB (Miller, J. H., Experiments in Molecular Genetics, Cold Spring Harbor (1972)), at 37° C. The overnight culture was diluted 250 fold into fresh medium and aerated by shaking at 37° C. Samples of the minimal medium culture were harvested at A600=0.40 (exponential phase) and 1.6 (transition to stationary phase) prior to RNA isolation. An IPTG induction (Miller, J. H., Experiments in Molecular Genetics, Cold Spring Harbor (1972)) was performed to examine the specificity with which it effects gene expression. A culture grown overnight in LB at 37° C. was diluted 250 fold into fresh LB and aerated at 37° C. When the culture achieved an appropriate density (A600=0.40), it was split. To one portion was added IPTG to a final concentration of 1 mM; the untreated sample served as a control. Incubation of both samples was continued with aeration at 37° C. for another 15 min (A600=0.45 for both cultures) before RNA isolation was initiated.
RNA Isolation. An equivalent volume of shaved ice was added to 50 mL samples which were pelleted immediately in a refrigerated centrifuge by spinning at 10,410×g for 2 min. Each resultant pellet was resuspended in a mixture containing 100 μL of Tris HCl (10 mM, pH 8.0) and 350 μL of β-mercaptoethanol supplemented RLT buffer [Qiagen RNeasy Mini Kit, Valencia, Calif.]. The cell suspension was added to a chilled 2 mL screwed-capped microfuge tube containing 100 μL of 0.1 mm zirconia/silica beads (Biospec Product Inc., Bartlesville, Okla.). The cells were broken by agitation at room temperature for 25 sec with a Mini-Beadbeater™ (Biospec Products Inc., Bartlesville, Okla.). Debris was pelleted by centrifugation for 3 min at 16,000×g and 4° C.; the resultant supernatant was mixed with 250 μL of ethanol. This mixture was loaded onto a column from the Qiagen RNeasy Mini Kit. RNA isolation was completed using the protocol supplied with this kit. Incubation for 1 hr. at 37° C. in 40 mM Tris pH 8.0, 10 mM NaCl, 6 mM MgCl2 with RNase free RQ1 DNase (1 unit/μL, Promega, Madison, Wis.) digested any genomic DNA contaminating the RNA preparation. The digestion products were purified by a second passage through the RNeasy protocol (Qiagen, Valencia, Calif.). The product was eluted from the column in 50 μL RNAse-free water prior to determining sample concentration by an A260 reading. RNA preparations were stored frozen at either −20 or −80° C.
Synthesis of fluorescent cDNA from total RNA. Six microgram of RNA template and 12 μg of random hexamer primers (Operon Technologies, Inc., Alameda, Calif.) were diluted with double distilled (dd) water to a volume of 22 μL. Annealing was accomplished by incubation at 70° C. for 10 min followed by 10 min at room temperature. In order were added: 8 μL of 5×SuperScript II reaction buffer (Life Technologies, Inc., Gaithersberg, Md.), 4 μL of 0.1 M DTT, 2 μL of the dNTP mix (2 mM dATP, 2 mM dGTP, 2 mM TTP, 1 mM dCTP), 2 μL of 0.5 mM Cy3- or Cy5-dCTP (Amersham Pharmacia Biotech, Arlington Heights, Ill.), and 2 μL of SuperScript II reverse transcriptase ([…], Life Technologies Inc., Gaithersberg, Md.). DNA synthesis proceeded at 42° C. for 2.5 hr. before the reaction was terminated by heating at 94° C. for 5 min. Alkaline hydrolysis of the RNA templates was achieved by adding 2 μL of 5M NaOH followed by incubation at 37° C. for 10 min. Hydrolysis was terminated by the sequential addition of 3 μL of 5M HCl and 5 μL of 1M Tris-HCl, pH 6.8. The labeled cDNA was purified with a PCR purification kit (Qiagen, Valencia, Calif.), dried in a speed vacuum and stored at −20° C. Labeling efficiency was monitored using either A550, for Cy3 incorporation, or A650, for Cy5 labeling, to A260 ratios.
Hybridization and washing. […]

E. coli DM800 (lexA+) = assay: MMC exposure, gene expression profile of DM800 (lexA+); conditions: MMC for 40 min
Description: (§1) Strains E. coli strain, MG1655, was used to determine the gene expression profile of E. coli in response to a MMC challenge. Two isogenic E. coli strains (Mount et al, J. Bacteriol. 112:886-893 (1972)), DM800 (lexA^+), used as control displaying a normal response to DNA damage, and DM803 (lexA^ind), a strain unable to mount the predominant “SOS” response to DNA damage, were compared using comprehensive gene expression profiling.
(§2) MMC experiment MG1655 cells were grown in LB overnight with aeration. The overnight cultures were diluted 100 fold in LB to final volume of 500 mL and grown at 37° C. to exponential phase. 200 mL of culture was treated with MMC to the final concentration of 250 ng/mL. Another 200 mL of culture were mock treated without MMC for comparison. Cells were harvested at 15 min and 40 min for MG1655 strain. With DM800 and DM803 stains, cells, cultured in an identical manner, were harvested after 40 min exposure. RNA was isolated and gene expression profile was analyzed as shown in Examples 1 and 2.

E. coli DM803 (lexAind) = assay: MMC exposure, gene expression profile of DM803 (lexAind); conditions: MMC for 40 min
Description: as §1, §2

E. coli strain MG1655 = assay: MMC exposure, gene expression profile of MG1655
Description: as §1, §2

Compound | number of genes whose expression increased by a factor of more than 2 (E. coli MG1655; 1 mM IPTG for 15 min) | two-fold or greater repression of arrayed genes (E. coli MG1655; 1 mM IPTG for 15 min) | fold IPTG induction of b0956/ycbG (E. coli MG1655; gene b0956/ycbG (hydrogenase?), 1 mM IPTG, 15 min, LB, 37° C.) | fold IPTG induction of b1783/yeaG (E. coli MG1655; gene b1783/yeaG, 1 mM IPTG, 15 min, LB, 37° C.) | fold IPTG induction of b2324 (E. coli MG1655; gene b2324 (peptidase?), 1 mM IPTG, 15 min, LB, 37° C.) | fold IPTG induction of lacA (E. coli MG1655; gene lacA (thiogalactoside acyltransferase), 1 mM IPTG, 15 min, LB, 37° C.) | fold IPTG induction of lacY (E. coli MG1655; gene lacY (galactoside permease), 1 mM IPTG, 15 min, LB, 37° C.) | fold IPTG induction of lacZ (E. coli MG1655; gene lacZ (galactosidase), 1 mM IPTG, 15 min, LB, 37° C.) | fold IPTG induction of melA (E. coli MG1655; gene melA (galactosidase), 1 mM IPTG, 15 min, LB, 37° C.) | fold IPTG induction of uxaA (E. coli MG1655; gene uxaA (altronate hydrolase), 1 mM IPTG, 15 min, LB, 37° C.) | induction of SOS responsive genes (E. coli DM800 (lexA+)) | induction of dicB, dicC, sdiA, cheW, motA, cycA, fadL, chaC, codB and btuC (E. coli DM800 (lexA+)) | induction of SOS responsive genes, including lexA (E. coli DM803 (lexAind)) | induction of dicB, dicC, sdiA, cheW, motA, cycA, fadL, chaC, codB and btuC (E. coli DM803 (lexAind)) | number of genes with expression elevated greater than 2 fold relative to the control (E. coli strain MG1655; 40 min exposure, MMC 250 ng/mL) | number of stress response genes induced more than 2 fold (E. coli strain MG1655; 40 min exposure, recN, dinI, sulA, lexA, recA, uvrA, dinD, priC, umuC, mioC, uvrB, ruvA, xseA) | SOS response (E. coli strain MG1655; cells harvested at 15 min post exposure, MMC 250 ng/mL)
CC(C)S[C@@H]1O[C@H](CO)[C@H](O)[C@H](O)[C@H]1O [IPTG, isopropylthiogalactoside] | 8 genes | not observed | 2.5 fold | 3.6 fold | 5.3 fold | 36 fold | 14 fold | 29 fold | 2.9 fold | 4.0 fold | – | – | – | – | – | – | –
CO[C@@]12[C@H](COC(N)=O)C3=C(C(=O)C(C)=C(N)C3=O)N1C[C@@H]1N[C@@H]12 [MMC, mitomycin C] | – | – | – | – | – | – | – | – | – | – | greater than 2 fold | not induced | not induced | greater than 2 fold | 40 genes | 13 genes | very little
